Measurements reported in PubChem BioAssay AID843 (The Scripps Research Institute Molecular Screening Center, 2007).
Calls of active or inactive are those of the source. No rule for the calls is given here.

tested on: CRE-bla reporter cells, beta-lactamase FRET, activation; assay: activators of CRE-BLA reporter, dose response, counter-screen for S1P2 agonist project, cell-based, beta-lactamase FRET (AID 843)

Q: For `COc1cc2c(cc1OC)C1=C(C#N)CCC(=NC(=O)c3ccc(Cl)cc3)N1CC2`, which EC50 is on record?
A: 1.64 µM

Q: With `c1ccc(OCCSc2nnnn2-c2ccccc2)cc1` as the compound, how does the EC50 read?
A: > 50 µM (inactive)

Q: Which EC50 does the source give for `CN(C)CCCNS(=O)(=O)c1ccc(N2CCC(c3ccc(Cl)cc3)=N2)cc1` here?
A: 1.03 µM

Q: With `O=c1c(-c2nc3ccccc3s2)cccn1Cc1ccc(Cl)cc1` as the compound, how does the EC50 read?
A: 3.43 µM

Q: Which EC50 does the source give for `Cc1cc(C)n2cc(CSc3nnnn3-c3ccc(Cl)cc3)nc2n1` here?
A: > 50 µM (inactive)

Q: For `Cc1ccc(C2CC(=O)c3cnc(N4CCc5ccccc5C4)nc3C2)cc1` (configuration not stated), which EC50 is on record?
A: > 50 µM (inactive)

Q: With `COc1cc2c(cc1OC)C1=C(C#N)CCC(=O)N1CC2` as the compound, how does the EC50 read?
A: 2.96 µM

Q: With `O=C(NCc1ccco1)c1cc2ccc(O)cc2oc1=O` as the compound, how does the EC50 read?
A: 12.7 µM (inactive)

Q: For `COc1ccc2cc(S(=O)(=O)NCCCN3CCOCC3)ccc2c1`, which EC50 is on record?
A: > 50 µM (inactive)

Q: How did the EC50 turn out when `O=C1SC(c2ccccc2)=N/C1=C/c1ccco1` was run?
A: > 50 µM (inactive)

Q: Which EC50 does the source give for `O=S(=O)(c1ccc(N2CCC(c3ccc(Cl)cc3)=N2)cc1)N(CCO)CCO` here?
A: 9.11 µM

Q: Which EC50 does the source give for `CC(C)n1c(=N)c(C(=O)NCCc2ccccc2)cc2c(=O)n3ccccc3nc21` here?
A: 23.6 µM (inactive)

Q: For `CCCc1nn(-c2cc(Cl)ccc2OC)c2c1C(=O)CCC2`, which EC50 is on record?
A: > 50 µM (inactive)

Q: Which EC50 does the source give for `O=C1CCCC(O)=C1C=NCCc1ccccc1` here?
A: > 50 µM (inactive)

Q: How did the EC50 turn out when `O=c1c(-c2nc3ccccc3s2)cccn1Cc1ccc(Cl)c(Cl)c1` was run?
A: 3.29 µM

Q: For `CCC(C)n1c(NC(=O)c2ccccc2)c(C#N)c2nc3ccccc3nc21` (configuration not stated), which EC50 is on record?
A: 2.95 µM

Q: `COc1ccc(C(c2c[nH]c3ccccc23)c2c[nH]c3ccccc23)cc1O` was tested. Which EC50 did it give?
A: > 50 µM (inactive)

Q: Which EC50 does the source give for `Cc1ccccc1-n1c(=O)c(C#N)cc2c(=O)n3ccccc3nc21` here?
A: 26.3 µM (inactive)

Q: For `O=c1c(-c2nc3ccccc3s2)cccn1Cc1ccccc1`, which EC50 is on record?
A: 6.82 µM

Q: `CCC(=O)c1cc2c(C)cc(=O)oc2c(C)c1O` was tested. Which EC50 did it give?
A: > 50 µM (inactive)

Q: `O=C(Nc1ccccn1)Nc1cccs1` was tested. Which EC50 did it give?
A: > 50 µM (inactive)

Q: `Cc1cc(-c2nnc(SCC(=O)NC3CCCC3)o2)no1` was tested. Which EC50 did it give?
A: > 50 µM (inactive)

Q: How did the EC50 turn out when `CS(=O)(=O)NCc1nnc(SCC(=O)NC2CCCCC2)n1-c1ccc(F)cc1` was run?
A: > 50 µM (inactive)

Q: Which EC50 does the source give for `CCOC(=O)c1c(C)n(C)c2ccc(OCC(O)Cn3nc(C)cc3C)cc12` (configuration not stated) here?
A: > 50 µM (inactive)

Q: With `COc1ccccc1CNC(=O)c1c(N)n(CCCN2CCOCC2)c2nc3ccccc3nc12` as the compound, how does the EC50 read?
A: 22.9 µM (inactive)

Q: Which EC50 does the source give for `Clc1ccc(-c2ccc(/C=N/Nc3cc(N4CCOCC4)nc(N4CCOCC4)n3)o2)cc1` here?
A: 14.5 µM (inactive)

Q: With `N#CCN1CCN(CC(=O)Nc2cccc3ccccc23)CC1` as the compound, how does the EC50 read?
A: > 50 µM (inactive)

Q: Which EC50 does the source give for `CCN(CC)c1ccc(NC(=O)Nc2ccccc2C(F)(F)F)cc1` here?
A: > 50 µM (inactive)

Q: `O=C(CCC(=O)N1CCc2ccccc21)Nc1ccccc1` was tested. Which EC50 did it give?
A: > 50 µM (inactive)

Q: How did the EC50 turn out when `O=C(NCC1(c2ccccc2)CCCC1)C(=O)N1CCOCC1` was run?
A: > 50 µM (inactive)

Q: For `Clc1ccc(N2N=C(c3cccs3)CC2c2ccco2)cc1` (configuration not stated), which EC50 is on record?
A: 3.35 µM

Q: For `CCOC(=O)CN(C(=O)CSc1nnc(COc2ccc(OC)cc2)n1C)c1ccccc1`, which EC50 is on record?
A: > 50 µM (inactive)

Q: How did the EC50 turn out when `CC(C)CCNC(=O)c1c(N)n(Cc2ccc3c(c2)OCO3)c2nc3ccccc3nc12` was run?
A: 6.45 µM

Q: How did the EC50 turn out when `O=C(Cc1c[nH]c2ccccc12)Nc1nc2ccccc2[nH]1` was run?
A: > 50 µM (inactive)

Q: How did the EC50 turn out when `Cc1cc(C(=O)CN2C(=O)CCC2=O)c(C)n1Cc1ccccc1` was run?
A: > 50 µM (inactive)

Q: How did the EC50 turn out when `Cc1cccc2cc(C(c3nnnn3CC3CCCO3)N3CCc4ccccc4C3)c(=O)[nH]c12` (configuration not stated) was run?
A: > 50 µM (inactive)

Q: How did the EC50 turn out when `Cc1cc(Br)ccc1OCCCCNCCO` was run?
A: > 50 µM (inactive)

Q: `CCC(C)NC(=O)c1c(N)n(Cc2ccc3c(c2)OCO3)c2nc3ccccc3nc12` (configuration not stated) was tested. Which EC50 did it give?
A: 5.7 µM

Q: For `NS(=O)(=O)c1ccc(N2N=C(c3ccc(Br)cc3)CC2c2ccc(F)cc2)cc1` (configuration not stated), which EC50 is on record?
A: 2.69 µM

Q: With `COCCNC(=O)CN1CCN(C(c2ccccc2)c2ccccc2)CC1` as the compound, how does the EC50 read?
A: > 50 µM (inactive)

Q: With `NC(=O)c1ccc(NC(=O)C2CCCO2)cc1` (configuration not stated) as the compound, how does the EC50 read?
A: > 50 µM (inactive)

Q: With `CCOCCCNc1nc(=S)[nH]c2cc(OC)c(OC)cc12` as the compound, how does the EC50 read?
A: > 50 µM (inactive)

Q: With `C(=C\c1ccccc1)/CSc1nnc(-c2ccccc2)n1Cc1ccco1` as the compound, how does the EC50 read?
A: > 50 µM (inactive)

Q: With `c1ccc(-c2nc3ccccn3c2NCc2ccc3c(c2)OCO3)cc1` as the compound, how does the EC50 read?
A: > 50 µM (inactive)

Q: How did the EC50 turn out when `CCOC(=O)c1cc2ccc(OC)c(OC)c2c(=O)s1` was run?
A: > 50 µM (inactive)

Q: For `Cc1cccc(C(=O)NC2CC3CCCC(C2)N3C(=O)NC2CCCCC2)c1` (configuration not stated), which EC50 is on record?
A: > 50 µM (inactive)

Q: `CC(C)CNC(=O)c1c(N)n(Cc2ccc3c(c2)OCO3)c2nc3ccccc3nc12` was tested. Which EC50 did it give?
A: 5.66 µM

Q: With `Cc1ccc(CNC(=O)CCNC(=O)c2ccco2)cc1` as the compound, how does the EC50 read?
A: > 50 µM (inactive)

Q: With `O=c1[nH]c(-c2cccs2)nc2ccccc12` as the compound, how does the EC50 read?
A: > 50 µM (inactive)

Q: For `Cc1cc(C)c(S(=O)(=O)Nc2ccc(O)cc2)cc1C`, which EC50 is on record?
A: > 50 µM (inactive)

Q: How did the EC50 turn out when `CCOC(=O)c1cc2ccc(OC(=O)c3ccco3)cc2oc1=O` was run?
A: 8.74 µM

Q: With `O=S(=O)(Cc1ccc(Cl)cc1)NCC1CCCO1` (configuration not stated) as the compound, how does the EC50 read?
A: > 50 µM (inactive)

Q: Which EC50 does the source give for `COC(=O)c1cn[nH]c1NC(=S)Nc1ccccc1C` here?
A: > 50 µM (inactive)

Q: With `Cc1cccn2c(=O)c3cc(C(=O)NCCc4ccccc4)c(=N)n(CCCn4ccnc4)c3nc12` as the compound, how does the EC50 read?
A: 10.2 µM (inactive)

Q: For `CCOc1cccc(OCCCCn2ccnc2)c1`, which EC50 is on record?
A: > 50 µM (inactive)

Q: For `Oc1cccc(C(=S)N2CCN(Cc3ccccc3)CC2)c1`, which EC50 is on record?
A: > 50 µM (inactive)

Q: Which EC50 does the source give for `COc1ccc(Cn2c(-c3ccco3)nc3oc4cc(OC)ccc4c(=O)c3c2=O)cc1` here?
A: > 50 µM (inactive)

Q: `Nc1c(C(=O)NCCCc2ccccc2)c2nc3ccccc3nc2n1Cc1cccs1` was tested. Which EC50 did it give?
A: 5.9 µM

Q: Which EC50 does the source give for `Cc1ccc(Cn2cccc(-c3nc4ccccc4s3)c2=O)cc1` here?
A: 24 µM (inactive)

Q: `Clc1ccc2nc(N3CCNCC3)nc(-c3ccccc3)c2c1` was tested. Which EC50 did it give?
A: 9.98 µM

Q: Which EC50 does the source give for `COc1cccc(CNC(=O)CN(c2cc(C)cc(C)c2)S(=O)(=O)c2c(C)noc2C)c1` here?
A: > 50 µM (inactive)

Q: Which EC50 does the source give for `C=CCn1c(N)cc(=O)nc1SCC(=O)Nc1ccccc1` here?
A: > 50 µM (inactive)
